Columns and labels:
NB7 (Neuroblastoma) = assay: Bliss excess, mean over the matrix (fraction); higher = more synergy
In short: (§1)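 Bliss excess equals the observed combination effect minus the expected value EA + EB − EA·EB, where EA and EB are the effects of each agent alone. Combination Emax is the second-highest inhibition within the matrix. Inhibition was scaled from CellTiter-Glo 2.0 luminescence, with 0 set by vehicle wells and 1 by blank wells, after 72 hours of two-drug dosing of cells plated in 1536-well plates.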

[1] = tested on: PFSK-1 (Other Solid Carcinomas); assay: as above
In short: as §1

[2] = tested on: LC4-1 (B-Lymphoblastic Leukemia); assay: as above
In short: as §1

[3] = tested on: ASH-3 (Thyroid Gland Carcinoma); assay: as above
In short: as §1

[4] = tested on: NCI-N87 (Gastric Carcinoma); assay: as above
In short: as §1

GI-1 (Glioblastoma) [5] = assay: as above
In short: as §1

[6] = tested on: KLE (Endometrial Carcinoma); assay: combination Emax (second highest fraction inhibited in the dose matrix, 72 h); higher = more inhibition; extreme values may be limits of the assay
In short: as §1

[7] = tested on: PF-382 (T-Lymphoblastic Leukemia); assay: as above
In short: as §1

[8] = tested on: HuP-T3 (Pancreatic Carcinoma); assay: as above
In short: as §1

[9] = tested on: VMRC-LCD (Lung Adenocarcinoma); assay: as above
In short: as §1

[10] = tested on: H-EMC-SS (Chondrosarcoma); assay: as above
In short: as §1

[11] = tested on: KYSE-50 (Esophageal Squamous Cell Carcinoma); assay: as above
In short: as §1

[12] = tested on: PFSK-1 (Other Solid Carcinomas); assay: as above
In short: as §1

[13] = tested on: OCUM-1 (Gastric Carcinoma); assay: as above
In short: as §1

[14] = tested on: KP-2 (Pancreatic Carcinoma); assay: as above
In short: as §1

IMR-5 (Neuroblastoma) = assay: as above
In short: as §1

[15] = tested on: EBC-1 (Squamous Cell Lung Carcinoma); assay: as above
In short: as §1

GI-1 (Glioblastoma) [16] = assay: as above
In short: as §1

EW-13 (Ewing's Sarcoma) [17] = assay: Bliss excess, mean over the matrix (fraction); higher = more synergy
In short: as §1

EW-13 (Ewing's Sarcoma) [18] = assay: combination Emax (second highest fraction inhibited in the dose matrix, 72 h); higher = more inhibition; extreme values may be limits of the assay
In short: as §1

CN(C)CCCOc1ccc(-c2ccc3ncc4c(c3c2)n(C2CCOCC2)c(=O)n4C)cn1 [AZD0156] + O=C(c1cc(Cc2n[nH]c(=O)c3ccccc23)ccc1F)N1CCN(C(=O)C2CC2)CC1 [Olaparib] (first compound max 3 µM, partner max 3 µM)
Bliss excess (NB7 (Neuroblastoma)): 0.115 | Bliss excess [1]: 0.0954 | Bliss excess [2]: 0.25 | Bliss excess [3]: -0.0311 | Bliss excess [4]: -0.0568 | Bliss excess (GI-1 (Glioblastoma) [5]): 0.0337 | combination Emax [6]: 0.334 | combination Emax [7]: 0.38 | combination Emax [8]: 0.223 | combination Emax [9]: 0.0443 | combination Emax [10]: 0.258 | combination Emax [11]: 0.195 | combination Emax [12]: 0.424 | combination Emax [13]: 0.319 | combination Emax [14]: 0.152 | combination Emax (IMR-5 (Neuroblastoma)): 0.544 | combination Emax [15]: 0.267 | combination Emax (GI-1 (Glioblastoma) [16]): 0.336

C[C@@H](c1ccc2nccn2c1)n1nnc2ncc(-c3cnn(C)c3)nc21 [Savolitinib] + CN(CC[C@H](CSC1=CC=CC=C1)NC2=C(C=C(C=C2)S(=O)(=O)NC(=O)C3=CC=C(C=C3)N4CCC(CC4)[C@H](C5=CC=CC=C5C6=CC=C(C=C6)Cl)O)S(=O)(=O)C(F)(F)F)CCO [AZD4320] (first compound max 1 µM, 7x7, partner max 1 µM)
Bliss excess (EW-13 (Ewing's Sarcoma) [17]): -0.0577 | Bliss excess [1]: 0.0076 | Bliss excess [3]: -0.0078 | combination Emax [6]: 0.216 | combination Emax [7]: 0.993 | combination Emax [8]: 0.203 | combination Emax (EW-13 (Ewing's Sarcoma) [18]): 0.639 | combination Emax [11]: 0.188 | combination Emax [12]: 0.329 | combination Emax [14]: 0.855 | combination Emax (IMR-5 (Neuroblastoma)): 0.481 | combination Emax [15]: 1

C=CCn1c(=O)c2cnc(Nc3ccc(N4CCN(C)CC4)cc3)nc2n1-c1cccc(C(C)(C)O)n1 [AZD1775] + C1CN(CCC1(C(=O)N[C@@H](CCO)C2=CC=C(C=C2)Cl)N)C3=NC=NC4=C3C=CN4 [Capivasertib] (first compound max 3 µM, partner max 3 µM)
Bliss excess (NB7 (Neuroblastoma)): -0.0648 | Bliss excess [1]: -0.0268 | Bliss excess [2]: -0.0233 | Bliss excess [3]: -0.0086 | Bliss excess [4]: -0.0067 | Bliss excess (GI-1 (Glioblastoma) [5]): 0.0543 | combination Emax [6]: 0.619 | combination Emax [7]: 0.952 | combination Emax [8]: 0.655 | combination Emax [10]: 0.464 | combination Emax [11]: 0.771 | combination Emax [12]: 0.893 | combination Emax [13]: 0.707 | combination Emax [14]: 0.498 | combination Emax (IMR-5 (Neuroblastoma)): 1 | combination Emax [15]: 0.7 | combination Emax (GI-1 (Glioblastoma) [16]): 0.907

CN(C)CCCOc1ccc(-c2ccc3ncc4c(c3c2)n(C2CCOCC2)c(=O)n4C)cn1 [AZD0156] + CCN(CCO)CCCOc1ccc2c(Nc3cc(CC(=O)Nc4cccc(F)c4)[nH]n3)ncnc2c1 [AZD2811] (first compound max 1 µM, 7x7, partner max 1 µM)
Bliss excess (EW-13 (Ewing's Sarcoma) [17]): 0.009 | Bliss excess (NB7 (Neuroblastoma)): -0.0082 | Bliss excess [2]: -0.108 | Bliss excess [3]: 0.0032 | Bliss excess [4]: 0.0046 | Bliss excess (GI-1 (Glioblastoma) [5]): 0.0555 | combination Emax [6]: 0.334 | combination Emax [7]: 0.823 | combination Emax [8]: 0.0599 | combination Emax [9]: 0.545 | combination Emax [10]: 0.367 | combination Emax (EW-13 (Ewing's Sarcoma) [18]): 0.332 | combination Emax [11]: 0.204 | combination Emax [13]: 0.332 | combination Emax [14]: 0.0724 | combination Emax (IMR-5 (Neuroblastoma)): 0.967 | combination Emax [15]: 0.171 | combination Emax (GI-1 (Glioblastoma) [16]): 0.411

Cc1cc2ncnn2cc1Nc1ncc2c(n1)n(C1CCOCC1)c(=O)n2C [AZD7648] + O=C(c1cc(Cc2n[nH]c(=O)c3ccccc23)ccc1F)N1CCN(C(=O)C2CC2)CC1 [Olaparib] (first compound max 10 µM, 7x7, partner max 10 µM)
Bliss excess (EW-13 (Ewing's Sarcoma) [17]): -0.0427 | Bliss excess (NB7 (Neuroblastoma)): -0.0291 | Bliss excess [2]: -0.0517 | Bliss excess [3]: 0.0057 | Bliss excess [4]: -0.0262 | Bliss excess (GI-1 (Glioblastoma) [5]): -0.0013 | combination Emax [6]: 0.419 | combination Emax [7]: 0.49 | combination Emax [8]: 0.12 | combination Emax [9]: 0.0108 | combination Emax [10]: 0.321 | combination Emax (EW-13 (Ewing's Sarcoma) [18]): 0.564 | combination Emax [11]: 0.0839 | combination Emax [13]: 0.186 | combination Emax [14]: 0.12 | combination Emax (IMR-5 (Neuroblastoma)): 0.475 | combination Emax [15]: 0.202 | combination Emax (GI-1 (Glioblastoma) [16]): 0.261

CS(=O)(=O)CCNCc1ccc(-c2ccc3ncnc(Nc4ccc(OCc5cccc(F)c5)c(Cl)c4)c3c2)o1 [Lapatinib] + NC1(c2ccc(-c3nc4ccn5c(=O)[nH]nc5c4cc3-c3ccccc3)cc2)CCC1 [MK-2206] (first compound max 10 µM, 7x7, partner max 10 µM)
Bliss excess (NB7 (Neuroblastoma)): 0.0221 | Bliss excess [1]: -0.0286 | Bliss excess [2]: -0.0073 | Bliss excess [3]: 0.0178 | Bliss excess [4]: 0.0091 | Bliss excess (GI-1 (Glioblastoma) [5]): 0.0275 | combination Emax [7]: 0.974 | combination Emax [9]: 0.205 | combination Emax [10]: 0.316 | combination Emax [12]: 0.942 | combination Emax [13]: 0.843 | combination Emax (GI-1 (Glioblastoma) [16]): 0.899

CN(CCO)CC[C@H](CSc1ccccc1)Nc1ccc(S(=O)(=O)NC(=O)c2ccc(N3CCC([C@@H](O)c4ccccc4-c4ccc(Cl)cc4)CC3)cc2)cc1S(=O)(=O)C(F)(F)F [AZD4320] + CN(C)CCCOc1ccc(-c2ccc3ncc4c(c3c2)n(C2CCOCC2)c(=O)n4C)cn1 [AZD0156] (first compound max 1 µM, 7x7, partner max 1 µM)
Bliss excess (EW-13 (Ewing's Sarcoma) [17]): -0.0303 | Bliss excess (NB7 (Neuroblastoma)): -0.0333 | Bliss excess [1]: 0.0427 | Bliss excess [2]: 0.0937 | Bliss excess [3]: 0.0341 | Bliss excess [4]: -0.0474 | Bliss excess (GI-1 (Glioblastoma) [5]): 0.0066 | combination Emax [6]: 0.266 | combination Emax [7]: 0.98 | combination Emax [9]: 0.0958 | combination Emax [10]: 0.46 | combination Emax (EW-13 (Ewing's Sarcoma) [18]): 0.636 | combination Emax [11]: 0.0706 | combination Emax [12]: 0.375 | combination Emax [13]: 0.734 | combination Emax [14]: 0.897 | combination Emax (IMR-5 (Neuroblastoma)): 0.608 | combination Emax [15]: 0.944 | combination Emax (GI-1 (Glioblastoma) [16]): 0.342

CCc1c2c(nc3ccc(O)cc13)-c1cc3c(c(=O)n1C2)COC(=O)[C@]3(O)CC [SN-38] + CN(C)CCCOc1ccc(-c2ccc3ncc4c(c3c2)n(C2CCOCC2)c(=O)n4C)cn1 [AZD0156] (first compound max 0.3 µM, 7x7, partner max 1 µM)
Bliss excess (EW-13 (Ewing's Sarcoma) [17]): -0.0589 | Bliss excess (NB7 (Neuroblastoma)): -0.0027 | Bliss excess [2]: -0.0587 | Bliss excess [3]: 0.0121 | Bliss excess [4]: -0.0447 | Bliss excess (GI-1 (Glioblastoma) [5]): 0.0399 | combination Emax [6]: 0.453 | combination Emax [7]: 0.994 | combination Emax [8]: 0.704 | combination Emax [9]: 0.0996 | combination Emax [10]: 0.643 | combination Emax (EW-13 (Ewing's Sarcoma) [18]): 0.734 | combination Emax [11]: 0.171 | combination Emax [13]: 0.635 | combination Emax [14]: 0.404 | combination Emax (IMR-5 (Neuroblastoma)): 0.993 | combination Emax [15]: 0.863 | combination Emax (GI-1 (Glioblastoma) [16]): 0.974

— the supplement of paper PMC11061612
